Tests used:
Assay in all cases: relative viability (nuclei count vs DMSO), 5 days (fraction); higher = more cells survive
[1] = compound: C1=CC=C(C(=C1)C2=CC=C(C=C2)C3=CSC4=C3C(=C(C(=O)N4)C#N)O)O + CC(=O)c1c(C)c2cnc(Nc3ccc(N4CCNCC4)cn3)nc2n(C2CCCC2)c1=O [Palbociclib] (partner 0.5 µM)
In short: (§1)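 Lung cancer cell lines, seeded in 1536-well plates, were treated the following day by pin tool with a single drug or with five library-drug doses (not always all listed) in √10 steps on top of a fixed anchor-drug dose. Cells were fixed and nuclei stained in one step after 5 days, and nuclei were counted. Relative viability is the nuclei count for treated wells divided by that for vehicle wells, reported as medians of duplicate plates.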

[2] = compound: C1=CC=C(C(=C1)C2=CC=C(C=C2)C3=CSC4=C3C(=C(C(=O)N4)C#N)O)O + O=C(c1cc(Cc2n[nH]c(=O)c3ccccc23)ccc1F)N1CCN(C(=O)C2CC2)CC1 [Olaparib] (partner 8 µM)
In short: as §1

[3] = compound: O=C(CCCCCCNC(=O)c1cnc(N(c2ccccc2)c2ccccc2)nc1)NO [Ricolinostat] + CC1(C)CCC(c2ccc(Cl)cc2)=C(CN2CCN(c3ccc(C(=O)NS(=O)(=O)c4ccc(N[C@H](CCN5CCOCC5)CSc5ccccc5)c(S(=O)(=O)C(F)(F)F)c4)cc3)CC2)C1 [Navitoclax] (partner 0.5 µM)
In short: as §1

[4] = compound: O=C(CCCCCCNC(=O)c1cnc(N(c2ccccc2)c2ccccc2)nc1)NO [Ricolinostat] + NC(=O)Nc1cc(-c2cccc(F)c2)sc1C(=O)N[C@H]1CCCNC1 [AZD7762] (partner 0.2 µM)
In short: as §1

Row | Cell Line | relative viability ([1]; first compound 0.08 µM) | relative viability ([1]; first compound 0.253 µM) | relative viability ([1]; first compound 0.8 µM) | relative viability ([1]; first compound 2.53 µM) | relative viability ([1]; first compound 8 µM) | relative viability ([2]; first compound 0.08 µM) | relative viability ([2]; first compound 0.253 µM) | relative viability ([2]; first compound 0.8 µM) | relative viability ([2]; first compound 2.53 µM) | relative viability ([2]; first compound 8 µM) | relative viability ([3]; first compound 0.08 µM) | relative viability ([3]; first compound 0.253 µM) | relative viability ([3]; first compound 0.8 µM) | relative viability ([3]; first compound 2.53 µM) | relative viability ([4]; first compound 0.253 µM) | relative viability ([4]; first compound 0.8 µM) | relative viability ([4]; first compound 2.53 µM) | relative viability ([4]; first compound 0.08 µM)
1 | LCLC-97TM1 | 0.24 | 0.233 | 0.268 | 0.26 | 0.204 | 0.223 | 0.357 | 0.431 | 0.429 | 0.445 | 0.41 | 0.431 | 0.485 | 0.357 | 0.378 | 0.265 | 0.34 | –
2 | NCI-H1437 | 0.277 | 0.361 | 0.324 | 0.326 | 0.27 | 0.616 | 0.74 | 0.668 | 0.641 | 0.606 | 1 | 1.07 | 1.02 | 0.831 | 0.977 | 1.16 | 1.01 | 1.12
3 | NCI-H1915 | 0.587 | 0.558 | 0.554 | 0.756 | 0.515 | 0.298 | 0.265 | 0.262 | 0.273 | 0.246 | 0.797 | 0.746 | 0.778 | 0.712 | 0.653 | 0.685 | 0.573 | 0.652
4 | NCI-H441 | 0.208 | 0.21 | 0.184 | 0.275 | 0.21 | 0.548 | 0.539 | 0.64 | 0.716 | 0.462 | 0.77 | 0.411 | 0.798 | 0.357 | 1.06 | 0.924 | 0.801 | 0.982
5 | PC-3 [JPC-3] | 0.496 | 0.599 | 0.535 | 0.601 | 0.577 | 1.11 | 1.37 | 1.15 | 1.23 | 1.24 | 0.778 | 0.77 | 0.739 | 0.574 | 0.695 | 0.679 | 0.665 | 0.54
6 | 201T | 0.381 | 0.361 | 0.362 | 0.38 | 0.387 | 0.652 | 0.812 | 0.828 | 0.74 | 0.885 | 1.21 | 1.16 | 1.23 | 1.24 | 0.657 | 0.645 | 0.541 | 0.607
7 | LK-2 | 0.515 | 0.749 | 0.629 | 0.913 | 0.517 | 0.568 | 0.899 | 0.883 | 0.822 | 0.753 | 0.841 | 0.898 | 0.811 | 0.842 | 0.375 | 0.38 | 0.348 | 0.254
8 | NCI-H727 | 0.711 | 0.703 | 0.571 | 0.666 | 0.591 | 0.829 | 0.795 | 0.704 | 0.756 | 0.825 | 0.356 | 0.55 | 0.397 | 0.405 | 0.711 | 0.664 | 0.576 | 0.475
